Data taken from patent US11479805B2, “Combinatorial single molecule analysis of chromatin” (The General Hospital Corporation, priority 2015, dated 2022).

Columns and labels:
[1] = tested on: control peptides and singly modified peptides; assay: Antibody specificity peptide array (dot-blot assay); format: binding; details: FIG. 9
Protocol: FIG. 9A-9B. Peptide array confirms high antibody specificity (A-B) Reactivity of H3K27me3 antibody (A) or H3K4me3 antibody (B) with control peptides and singly modified peptides.
To test for antibody specificity, Applicants used a peptide array with unlabeled antibodies (the same lots of antibodies that were labeled by Cell Signaling and used for the imaging) according to the following protocol: array is immersed in 4 ml blocking solution (TBST containing 5% non-fat dried milk) for 4 hours at room temperature. Next, array is washed 3 times with TBST, and primary antibody is added (diluted in TBST 1:25,000). Antibody is incubated over night at 4° C. on a rotor. Then the array is washed 3 times in TBST and the secondary antibody (Active Motif, 100612) is added for 1 hour at room temperature. Array is washed again 3 times in TBST and the signal is detected by FlourChemQ.

[2] = tested on: recombinant unmodified nucleosomes; assay: Single-molecule antibody binding to recombinant unmodified nucleosomes; details: monitored over time; FIG. 8A
Protocol: FIG. 8A-8B. Low background and high specificity of antibody binding. (A) Recombinant unmodified nucleosomes were prepared as previously described (91), and then ligated to biotinylated, fluorescent adaptors as in FIG. 1A. Binding of fluorescently-labeled H3K27me3 antibodies was monitored over time. […] For comparison, also shown are images of H3K27me3 antibody binding to nucleosomes prepared from HEK293 cells. (B) Western-blot analysis of labeled H3K27me3 peptide (TAMRA, green) bound by H3K27me3 antibodies (Alexa647, red). Fluorescent signal on membrane was visualized using a Typhoon trio+imager (Amersham Biosciences).
Applicants imaged millions of nucleosomes and decoded their modification state. Images are analyzed with Cell Profiler software. […] In contrast, when Applicants treated cells with histone deacetylase inhibitors (HDACi), the fraction of acetylated nucleosomes increased to 7% (FIG. 1C, 1D). Importantly, when Applicants repeated the analysis with recombinant unmodified nucleosomes, just 0.1% of nucleosomes scored (FIG. 1E, 8A). […]
(§1) All experiments were performed on a total internal reflection (TIRF) microscope with two lasers, 532 nm/75 mW and 640 nm/40 mW, for fluorescence excitation (Compass 215M, Cube-40C, Coherent). […]

nucleosomes from ESCs = assay: Time-lapse TIRF imaging of antibody binding and dissociation on nucleosomes from ESCs; set-up: species or system Mouse; details: images every 15 minutes, FIG. 7B-C
Protocol: FIG. 7A-7F. Time-lapse images detect repeated antibody binding and dissociation events. (A) Mono-nucleosomes were extracted from HEK293 cells, labeled and distributed on the surface as described in FIG. 1A. […] Shown are images taken at 15, 30 and 45 minutes after addition of antibodies. (B-F) Nucleosomes from ESCs were distributed on the surface and incubated with antibodies targeting H3K27me3 (B, D, F) or H3K4me3 (C, E). Time lapse images were taken every 15 minutes. A total of 10,000 individual binding events were analyzed for each antibody. (B-C) Number of binding events detected at each time point. Equilibrium of binding and dissociation of antibodies is achieved at 45 minutes for H3K27me3, and 75 minutes for H3K4me3. Later images show mild reduction in signal due to photo bleaching. (D-E) For each nucleosome, the number of binding events by antibody was calculated in a total of 8 images taken during the time course of the experiment (30-135 minutes). Graph depicts a histogram of the number of images in which each nucleosome is bound by the antibody. Due to repeated binding and dissociation events, most of the nucleosomes are bound more than once. […]
as §1

Substance: H3K27me3 antibody: Tri-Methyl-Histone H3 (Lys27) (C36B11) Rabbit mAb (Alexa Fluor 647 Conjugate), Cell Signaling #12158
- reactivity with control peptides and singly modified peptides (target specificity) [1]: very high target specificity and low background
- binding events on recombinant unmodified nucleosomes [2]: Very few binding events were detected
- time at which equilibrium of binding and dissociation of antibodies is achieved (nucleosomes from ESCs): 45 min
